Source: US11247983B2, “Compounds and methods for inhibiting JAK” (Dizal (Jiangsu) Pharmaceutical Co., Ltd., priority 2015, dated 2022)

Columns and labels:
[1] = test system: NCI-H1975 tumor xenografts; test: In vivo efficacy in the H1975 xenograft model (Example 69); set-up: species or system mice; details: oral, 18 days; osimertinib 2.5 mg/kg QD, Example 32 12.5, 25 or 50 mg/kg BID; combination compared to osimertinib alone, single agent relative to vehicle
Protocol: (§1) Tumor volume was measured twice a week.

[2] = test system: pSTAT3 (Y705) in NCI-H1975 tumors; test: pSTAT3 (Y705) levels in NCI-H1975 tumor lysates (pharmacodynamics, Example 69); type: in vivo, mice; details: Example 32 12.5, 25, 50 mg/kg BID, after one day of treatment, samples 2, 8 and 24 hours after the AM dose
Protocol: MATERIALS AND METHODS: NCI-H1975 cells (a human NSCLC cell line with L858R and T790M mutations in the EGFR gene) tumor cells were implanted subcutaneously in female NCr nude mice (Taconic Laboratories), 3×10^6 cells/mouse. […] Drug levels in plasma were measured by LC/MS, using a Linear Ion Trap Quadrupole LC/MS/MS Mass Spectrometer (QTRAP 5500 model 1024945-BB, AB Sciex Instruments), with separation on a Waters Xbridge C18 column.

[3] = test system: pSTAT3 (Y705) in PC-9 tumors; test: pSTAT3 (Y705) levels in PC-9 tumor lysates (Western blot, Example 70); type: in vivo, mice; details: Example 32 12.5 and 50 mg/kg BID with gefitinib, last day of treatment, 2, 8 and 24 hours after the AM dose
[4] = test system: NCI-H1650 tumor xenografts; test: In vivo efficacy in the H1650 xenograft model (Example 71); set-up: species or system mice; details: oral, 21 days; gefitinib 6.25 mg/kg QD, Example 32 25 or 50 mg/kg BID; combination compared to single agent gefitinib
Protocol: as §1

[5] = test system: pSTAT3 (Y705) in NCI-H1650 tumors; test: pSTAT3 levels in NCI-H1650 tumor lysates (Western blot, Example 71); type: in vivo, mice; details: measured after one day of treatment
Protocol: Twenty-three days after cell implantation, the mice were randomized into 6 groups (9 mice/group, average tumor volume 257 mm^3, range 205-303 mm^3). […] Drug levels in plasma were measured by LC/MS, using a Linear Ion Trap Quadrupole LC/MS/MS Mass Spectrometer (QTRAP 5500 model 1024945-BB, AB Sciex Instruments), with separation on a Waters Xbridge C18 column.

[6] = test system: LG1049 non-small cell lung cancer PDX tumor xenografts; test: In vivo efficacy in the LG1049 xenograft PDX model (Example 72)
Protocol: SUMMARY: LG1049 non-small cell lung cancer PDX tumor xenografts were grown subcutaneously in female NSG mice. […] Tumor volume was measured twice a week.
(§2) MATERIALS AND METHODS: LG1049 tumor fragments were implanted subcutaneously in female NSG mice (JAX Stock No. 005557).

[7] = test system: pSTAT3 (Y705) in LG1049 tumors; test: pSTAT3 levels in LG1049 tumor lysates (Western blot, Example 72); type: in vivo, mice; details: Example 32 25 mg/kg BID, 5 days of treatment, 4H after the final dose
Description: MATERIALS AND METHODS: LG1049 tumor fragments were implanted subcutaneously in female NSG mice (JAX Stock No. 005557). Once tumor volumes reached ˜125-275 mm^3, mice were randomized into 5 groups (10 mice/group, average tumor volume 189 mm^3, range 138-253 mm^3).

[8] = test system: NCI-H1975 tumor xenografts; test: In vivo efficacy of intermittent Example 32 dosing schedules in the H1975 xenograft model (Example 73); set-up: species or system mice; details: oral, 19 to 29 days; osimertinib 2.5 mg/kg QD, Example 32 12.5, 25 or 50 mg/kg BID on continuous or intermittent schedules; combination compared to osimertinib alone, single agent relative to vehicle
Protocol: as §1
MATERIALS AND METHODS: NCI-H1975 cells (a human NSCLC cell line with L858R and T790M mutations in the EGFR gene), were implanted subcutaneously in female NCr nude mice (Taconic Laboratories), 3×10^6 cells/mouse.

[9] = test system: pEGFR (pY1173) in LG1049 tumors; test: pEGFR levels in LG1049 tumor lysates (Western blot, Example 72); type: in vivo, mice; details: osimertinib 25 mg/kg QD, 5 days of treatment, 4H after the final dose
Description: as §2

**Q.** How did the “antitumor activity (tumor volume, FIG. 19)” value [1] turn out when `COc1nn(C)cc1Nc1nccc(-c2c[nH]c3c(NC(=O)[C@@H](C)N4CCN(C)CC4)cccc23)n1` [Example 32, (2R)-N-(3-{2-[(3-methoxy-1-methyl-1H-pyrazol-4-yl)amino]pyrimidin-4-yl}-1H-indol-7-yl)-2-(4-methylpiperazin-1-yl)propanamide] was run?
**A.** The value was “only weak antitumor activity”.

**Q.** And the “pSTAT3 knockdown in tumors (FIG. 21)” value [2]?
**A.** Its value is “dose dependent increase in pSTAT3 knockdown”.

**Q.** What about the “duration of pSTAT3 knockdown in tumors (FIG. 24)” value [3] of the same compound?
**A.** Its value is “dose dependent increase in the duration of pSTAT3 knockdown”.

**Q.** And the “antitumor activity (tumor volume, FIG. 25)” value [4]?
**A.** Its value is “only modest antitumor activity”.

**Q.** And the “knockdown of pSTAT3 in tumors (FIG. 27)” value [5]?
**A.** The value was “Knockdown of pSTAT3 was observed”.

**Q.** What about the “body weight (FIG. 29)” value ([6]; mouse, in vivo) of the same compound?
**A.** The value was “significant weight loss”.

**Q.** What about the “antitumor activity / tumor regression (tumor volume, FIG. 28)” value ([6]; oral, osimertinib 25 mg/kg QD 28 days, Example 32 25 mg/kg BID (18 days as single agent), combination compared to osimertinib alone, single agent relative to vehicle) of the same compound?
**A.** Its value is “no significant activity relative to vehicle control treatment”.

**Q.** And the “knockdown of pSTAT3 in tumors (FIG. 30)” value [7]?
**A.** The value was “robust knockdown”.

**Q.** What about the “antitumor activity (tumor volume, FIG. 31A-31E)” value [8] of the same compound?
**A.** The value was “no significant activity relative to vehicle control treatment”.

**Q.** For `C=CC(=O)Nc1cc(Nc2nccc(-c3cn(C)c4ccccc34)n2)c(OC)cc1N(C)CCN(C)C` [osimertinib, reference compound], which “body weight (FIG. 29)” value ([6]; LG1049 tumor bearing NSG mice, weight loss attributed to tumor growth) is on record?
**A.** The value was “lack of significant weight loss”.

**Q.** And the “tumor regrowth when treatment was stopped after 28 days” value ([6]; after 28 days of dosing)?
**A.** Its value is “tumors rapidly regrew”.

**Q.** What about the “knockdown of pEGFR in tumors (FIG. 30)” value [9] of the same compound?
**A.** Its value is “robust knockdown”.
